In patent US20230055705A1, “SUBSTITUTED THIOPHENE CARBOXAMIDES AND DERIVATIVES THEREOF” (Bayer Aktiengesellschaft, priority 2019, published 2023):

Columns and labels:
[1] = tested on: Colletotrichum lindemuthianum; test: In vivo preventive test on Colletotrichum lindemuthianum (Antrachnose on bean); conditions: 144 h, inoculation 72 h after spraying, evaluated 6 days after inoculation, read-out: efficacy; for pest or weed control at 500 ppm: 500 ppm of active ingredient
Description: (§1) The tested active ingredients were prepared by homogenization in a mixture of acetone/Dimethyl sulfoxide/Tween®, and then diluted with water to obtain the desired active material concentration. The young plants of bean were treated by spraying the active ingredient prepared as described above. Control plants were treated only with an aqueous solution of acetone/Dimethyl sulfoxide/Tween®.
(§2) After 72 hours, the plants were contaminated by spraying the leaves with an aqueous suspension of Colletotrichum lindemuthianum spores. The contaminated bean plants were incubated for 24 hours at 20° C. and at 100% relative humidity and then for 5 days at 20° C. and at 90% relative humidity. The test was evaluated 6 days after the inoculation. 0% means an efficacy which corresponds to that of the control plants while an efficacy of 100% means that no disease was observed.
Compound CMP1 was tested in an in vivo preventive test on Colletotrichum lindemuthianum (Antrachnose on bean) in the same conditions as described in Example F.

[2] = tested on: Xanthomonas campestris pv. campestris; test: In vivo preventive test on Xanthomonas campestris pv. campestris (black rot on cabbage); conditions: evaluated 8 or 10 days after inoculation, read-out: efficacy; for pest or weed control at 31 ppm: 31 ppm of active ingredient
Description: The tested active ingredients were prepared by homogenization in a mixture of acetone/Dimethyl sulfoxide/Tween®, and then diluted with water to obtain the desired active material concentration.
The young plants of cabbage were treated by spraying the active ingredient prepared as described above. Control plants were treated only with an aqueous solution of acetone/Dimethyl sulfoxide/Tween®.
After 72 hours, the plants were contaminated by spraying the leaves with an aqueous bacteria suspension of Xanthomonas campestris pv. campestris. The contaminated cabbage plants were incubated for 8 or 10 days at 27° C. at 95% relative humidity.
The test was evaluated 8 or 10 days after the inoculation. 0% means an efficacy which corresponds to that of the control plants while an efficacy of 100% means that no disease was observed. […]
Compounds CMP1, CMP2, CMP3 and CMP4 were tested in an in vivo preventive test on Xanthomonas campestris pv. campestris (black rot on cabbage) in the same conditions as described in Example H.

[3] = tested on: Pseudomonas syringae pv. tomato; test: In vivo preventive test on Pseudomonas syringae pv. tomato (bacterial speck on tomato); conditions: evaluated 5 or 6 days after inoculation, read-out: efficacy; for pest or weed control at 500 ppm: 500 ppm of active ingredient; for pest or weed control at 31 ppm: 31 ppm of active ingredient
Description: as §1, with “tomato” for “bean”
After 72 hours, the plants were contaminated by spraying the leaves with an aqueous bacteria suspension of Pseudomonas syringae pv. tomato. The contaminated tomato plants were incubated for 4 days in saturated atmosphere at 22° C. day/20° C. night—70% HR and then for 1 or 2 days at 22° C. day/20° C. night at 70-80% relative humidity.
The test was evaluated 5 or 6 days after the inoculation. 0% means an efficacy which corresponds to that of the control plants while an efficacy of 100% means that no disease was observed.
Compounds CMP1 and CMP4 were tested in an in vivo preventive test on Pseudomonas syringae pv. tomato (bacterial speck on tomato) in the same conditions as described in Example J.

[4] = tested on: Uromyces appendiculatus; test: In vivo preventive test on Uromyces appendiculatus (bean rust); conditions: 240 h, evaluated 10 days after inoculation, read-out: efficacy; for pest or weed control at 500 ppm: 500 ppm of active ingredient; for pest or weed control at 125 ppm: 125 ppm of active ingredient
Description: as §1
as §2, with “Uromyces appendiculatus” for “Colletotrichum lindemuthianum”, “9” for “5”, “70-80%” for “90%”, “10” for “6”
Compounds CMP5 and CMP6 were tested in an in vivo preventive test on Uromyces appendiculatus (bean rust) in the same conditions as described in Example I.

[5] = LogP by HPLC on reversed phase columns (EEC directive 79/831 Annex V.A8); type: physicochemical; conditions: reversed phase HPLC columns, method [a]: LC-UV, in an acidic range, with 0.1% formic acid in water and acetonitrile as eluent (linear gradient from 10% to 95% acetonitrile)
Description: In the above tables, measurement of LogP values was performed according to EEC directive 79/831 Annex V.A8 by HPLC (High Performance Liquid Chromatography) on reversed phase columns with the following methods: • ^[a]
Calibration was done with straight-chain alkan2-ones (with 3 to 16 carbon atoms) with known LogP values (measurement of LogP values using retention times with linear interpolation between successive alkanones). Lambda-max-values were determined using UV-spectra from 200 nm to 400 nm and the peak values of the chromatographic signals.

[6] = tested on: Peronospora parasitica; test: In vivo preventive test on Peronospora parasitica (Crucifer downy mildew); conditions: Hyaloperonospora parasitica, in Brassica oleracea, 120 h, cabbage, evaluated 5 days after inoculation, read-out: efficacy; for pest or weed control at 31 ppm: 31 ppm of active ingredient; for pest or weed control at 125 ppm: 125 ppm of active ingredient; for pest or weed control at 500 ppm: 500 ppm of active ingredient
Description: as §1, with “cabbage” for “bean”
After 72 hours, the plants were contaminated by spraying the leaves with an aqueous suspension of Peronospora parasitica spores. The contaminated cabbage plants were incubated for 5 days at 20° C. and at 100% relative humidity.
The test was evaluated 5 days after the inoculation. 0% means an efficacy which corresponds to that of the control plants while an efficacy of 100% means that no disease was observed.
Compounds CMP2 and CMP3 were tested in an in vivo preventive test on Peronospora parasitica (Crucifer downy mildew) in the same conditions as described in Example G.

[7] = tested on: salicylate responsive promoter sequence of the PR1 (pathogenesis-related protein I) gene (AT2G14610); test: Induction of defense gene expression in Arabidopsis thaliana (PR1 promoter-GFP reporter plants); type: in vivo; conditions: Arabidopsis thaliana, 72 h, 3rd day after spraying, mock treated leaves set as 1.00, read-out: relative fluorescence value; for fold induction at 75 ppm: 75 ppm of compound
Description: Arabidopsis thaliana reporter plants containing the coding sequence of a green fluorescent protein (GFP) linked to the salicylate responsive promoter sequence of the PR1 (pathogenesis-related protein I) gene (AT2G14610) were grown for five days and then sprayed with compounds. On the 3rd day after spraying, plant fluorescence was assessed with a MacroFluo instrument from Leica Microsystems (Wetzlar, Germany). Fluorescences were quantified with the Meta-Morph Microscopy Automation & Image Analysis Software (Molecular Devices, Sunnyvale, Calif., United States). Background fluorescence in mock treated leaves was set as 1.00.

SMILES	pest or weed control at 500 ppm [3] [%]	pest or weed control at 31 ppm [3] [%]	pest or weed control at 500 ppm [4] [%]	pest or weed control at 125 ppm [4] [%]	pest or weed control at 500 ppm [1] [%]	pest or weed control at 31 ppm [6] [%]	pest or weed control at 125 ppm [6] [%]	pest or weed control at 500 ppm [6] [%]	fold induction at 300 ppm [7]	other results
C[C@H](NC(=O)c1sc(Cl)c(Cl)c1Cl)C(=O)O [CMP1, reference compound]	< 20	–	–	–	–	–	–	–	–	pest or weed control at 31 ppm ([1]; 31 ppm of active ingredient): < 20%; pest or weed control at 31 ppm [2]: < 40%
COC(=O)[C@@H](NC(=O)c1sc(Cl)c(Cl)c1Cl)C(C)C [CMP4, reference compound]	–	0	–	–	–	–	–	–	–	pest or weed control at 125 ppm ([2]; 125 ppm of active ingredient): 0%
CC(C)[C@H](NC(=O)c1sc(Cl)c(Cl)c1Cl)C(=O)O [CMP5, reference compound]	–	–	–	–	–	–	–	–	–	pest or weed control at 8 ppm ([4]; 8 ppm): < 20%
CCOC(=O)[C@@H](NC(=O)c1sc(Cl)c(Cl)c1Cl)C(C)C [CMP6, reference compound]	–	–	< 40	–	–	–	–	–	–	–
CCSC(=O)[C@H](C)NC(=O)c1sc(Cl)c(Cl)c1Cl [I.089]	90 to 100	90 to 100	90 to 100	90 to 100	90 to 100	90 to 100	90 to 100	90 to 100	> 2	chromatographic logP [5]: 4.4; fold induction at 75 ppm [7]: > 2
CCNC(=O)[C@@H](NC(=O)c1sc(Cl)c(Cl)c1Cl)C(C)C [I.090]	90 to 100	90 to 100	90 to 100	80 to 89	90 to 100	90 to 100	90 to 100	90 to 100	> 2	pest or weed control at 31 ppm [2]: 70 to 79%; fold induction at 75 ppm [7]: > 2
CNC(=O)[C@H](C)NC(=O)c1sc(Cl)c(Cl)c1Cl [I.091]	–	–	70 to 79	80 to 89	70 to 79	90 to 100	90 to 100	90 to 100	> 2	chromatographic logP [5]: 2.35
CCSC(=O)[C@@H](NC(=O)c1sc(Cl)c(Cl)c1Cl)C(C)C [I.094]	80 to 89	–	90 to 100	–	–	–	–	90 to 100	> 2	–
